Experimental data as given in patent US9725442B2, “Heterocyclic derivative having PGD2 receptor antagonist activity” (Shionogi & Co., Ltd., priority 2011, dated 2017).

Experiments:
[1] = biological target: CYP3A4 (Homo sapiens (Human), UniProt P08684); assay: CYP inhibition test, terfenedine hydroxylation; format: in vitro ADME; conditions: pooled human hepatic microsome, 1 μmol/L terfenedine
Description: (§1) Using commercially available pooled human hepatic microsome, and employing, as markers, 7-ethoxyresorufin O-deethylation (CYP1A2), tolbutamide methyl-hydroxylation (CYP2C9), mephenyloin 4′-hydroxylation (CYP2C19), dextromethorphan O-demethylation (CYP2D6), and terfenedine hydroxylation as typical substrate metabolism reactions of human main five CYP enzyme forms (CYP1A2, 2C9, 2C19, 2D6, 3A4), an inhibitory degree of each metabolite production amount by a compound of the present compound was assessed.
(§2) The reaction conditions were as follows: substrate, 0.5 μmol/L ethoxyresorufin (CYP1A2), 100 μmol/L tolbutamide (CYP2C9), 50 μmol/L S-mephenyloin (CYP2C19), 5 μmol/L dextromethorphan (CYP2D6), 1 μmol/L terfenedine (CYP3A4); reaction time, 15 minutes; reaction temperature, 37° C.; enzyme, pooled human hepatic microsome 0.2 mg protein/mL; concentration of a compound of the present invention, 1, 5, 10, 20 μmol/L (four points).
(§3) Each five kinds of substrates, human hepatic microsome, or a compound of the present invention in 50 mM Hepes buffer as a reaction mixture was added to a 96-well plate at the composition as described above, NADPH, as a cofactor was added to initiate metabolism reactions as markers and. After the incubation at 37° C. for 15 minutes, a methanol/acetonitrile=1/1 (v/v) solution was added to stop the reaction. After the centrifugation at 3000 rpm for 15 minutes, resorufin (CYP1A2 metabolite) in the supernatant was quantified by a fluorescent multilabel counter and tolbutamide hydroxide (CYP2C9 metabolite), mephenyloin 4′ hydroxide (CYP2C19 metabolite), dextrorphan (CYP2D6 metabolite), and terfenadine alcohol (CYP3A4 metabolite) were quantified by LC/MS/MS.

[2] = biological target: DP receptor (Homo sapiens (Human), UniProt Q13258); assay: DP inhibitory activity in human platelets (PGD2-induced cAMP increase in platelet rich plasma, HTRF); format: cell-based; conditions: IC50 of PGD2 (300 nM)-induced cAMP increase, read-out: PRP
Sequence of DP receptor (Q13258 whole entry): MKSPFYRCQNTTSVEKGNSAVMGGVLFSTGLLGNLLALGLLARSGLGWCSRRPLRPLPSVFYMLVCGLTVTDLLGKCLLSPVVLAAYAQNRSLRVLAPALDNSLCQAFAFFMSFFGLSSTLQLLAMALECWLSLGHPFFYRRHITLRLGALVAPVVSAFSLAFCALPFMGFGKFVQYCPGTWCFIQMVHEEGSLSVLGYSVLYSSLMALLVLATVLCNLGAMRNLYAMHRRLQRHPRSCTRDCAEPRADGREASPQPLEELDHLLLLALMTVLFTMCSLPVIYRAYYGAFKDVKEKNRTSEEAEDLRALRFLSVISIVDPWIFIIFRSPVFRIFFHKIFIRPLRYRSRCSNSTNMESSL
Method: Thirty milliliter of blood was drown from healthy human into a syringe preloaded with 1/9 volume of 3.8% citrate sodium. The blood was centrifuged with 180 g for 10 min at room temperature and the upper plasma layer was collected as platelet rich plasma (PRP). The PRP was transferred to plate and treated with 3-isobutyl-1-methylxanthin (IBMX; […]) for 5 min. Then the compounds of the present invention were added to the plate and after 10 min, 300 nM of PGD2 was added. The reaction was stopped with 1 mmol/l hydrogenchlolide after 2 min of PGD2 addition, and platelet was lysed by adding 12% Triton X-100. The concentration of cAMP in the supernatant of the platelet lysate was quantified using homogenous time resolved fluorescence (HTRF). Inhibition ratio was defined by cAMP increase with and without compound, and […] for each compound was calculated from inhibitory curve.

[3] = biological target: T1, CRTH2 (Homo sapiens (Human), UniProt Q9Y5Y4); assay: CRTH2 inhibitory activity in human eosinophil (PGD2 induced eosinophil shape change); format: cell-based; conditions: human peripheral blood, 40 nM PGD2, forward scatter; read-out: IC50, inhibition of PGD2 induced eosinophil shape change
T1 sequence (Q9Y5Y4 whole entry): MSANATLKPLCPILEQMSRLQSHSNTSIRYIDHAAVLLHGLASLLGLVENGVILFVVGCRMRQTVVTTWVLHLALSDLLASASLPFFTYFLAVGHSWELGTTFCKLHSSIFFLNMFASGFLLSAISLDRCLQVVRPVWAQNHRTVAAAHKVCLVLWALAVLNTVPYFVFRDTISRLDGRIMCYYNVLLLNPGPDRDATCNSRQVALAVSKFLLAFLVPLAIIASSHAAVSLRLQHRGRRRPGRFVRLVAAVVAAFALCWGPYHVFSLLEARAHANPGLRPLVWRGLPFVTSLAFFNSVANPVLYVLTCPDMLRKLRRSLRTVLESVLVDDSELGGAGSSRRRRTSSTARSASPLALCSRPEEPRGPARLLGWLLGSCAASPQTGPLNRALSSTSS
Method: CRTH2 inhibitory activity in human eosinophil was determined as inhibitory activity of PGD2 induced eosinophil shape change.
Human peripheral blood was mixed with compounds of the present invention at 37° C. After 5 min, the blood was treated with 40 nM of PGD2 for 10 min and fixed. The blood was hemolyzed and centrifuged. Blood cells were resuspended in PBS and measured forward scatter (FS) using flow cytometer (FACSAria). Inhibition ratio was defined by comparing FS with and without compound, and IC50 for each compound was calculated from inhibitory curve.

[4] = biological target: CYP2C19 (Homo sapiens (Human), UniProt P33261); assay: CYP inhibition test, mephenyloin 4'-hydroxylation; format: in vitro ADME; conditions: pooled human hepatic microsome, 50 μmol/L S-mephenyloin
Sequence of CYP2C19 (P33261 whole entry): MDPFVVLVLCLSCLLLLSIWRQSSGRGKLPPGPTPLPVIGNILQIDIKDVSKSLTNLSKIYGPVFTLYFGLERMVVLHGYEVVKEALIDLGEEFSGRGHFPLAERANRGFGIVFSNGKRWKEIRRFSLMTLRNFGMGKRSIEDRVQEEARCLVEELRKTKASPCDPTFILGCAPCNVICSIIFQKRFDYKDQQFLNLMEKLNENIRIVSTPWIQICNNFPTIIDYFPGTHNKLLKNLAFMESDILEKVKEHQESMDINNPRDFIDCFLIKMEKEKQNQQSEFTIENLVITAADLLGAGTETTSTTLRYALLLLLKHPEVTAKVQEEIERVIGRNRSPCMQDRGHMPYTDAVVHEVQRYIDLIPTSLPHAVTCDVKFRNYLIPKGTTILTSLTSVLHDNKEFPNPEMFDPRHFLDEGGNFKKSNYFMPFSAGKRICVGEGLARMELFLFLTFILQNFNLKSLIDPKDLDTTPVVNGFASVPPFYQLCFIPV
Description: as §1, §2, §3

[5] = biological target: Human DP1 receptor (Homo sapiens (Human), UniProt Q13258); assay: Human DP1 inhibitory activity in DP1-expressing cell (PGD2-induced cAMP); format: cell-based
Sequence of Human DP1 receptor (Q13258 whole entry): as the sequence (Q13258 whole entry) above
Method: Compounds were categorized as AA (cAMP is less than 100 nM) and A (cAMP is more than 100 nM and less than 5000 nM) as shown in Table 99 and 100.

[6] = biological target: CYP1A2 (Homo sapiens (Human), UniProt P05177); assay: CYP inhibition test, 7-ethoxyresorufin O-deethylation; format: in vitro ADME; conditions: pooled human hepatic microsome, 0.5 μmol/L ethoxyresorufin
Sequence of CYP1A2 (P05177 whole entry): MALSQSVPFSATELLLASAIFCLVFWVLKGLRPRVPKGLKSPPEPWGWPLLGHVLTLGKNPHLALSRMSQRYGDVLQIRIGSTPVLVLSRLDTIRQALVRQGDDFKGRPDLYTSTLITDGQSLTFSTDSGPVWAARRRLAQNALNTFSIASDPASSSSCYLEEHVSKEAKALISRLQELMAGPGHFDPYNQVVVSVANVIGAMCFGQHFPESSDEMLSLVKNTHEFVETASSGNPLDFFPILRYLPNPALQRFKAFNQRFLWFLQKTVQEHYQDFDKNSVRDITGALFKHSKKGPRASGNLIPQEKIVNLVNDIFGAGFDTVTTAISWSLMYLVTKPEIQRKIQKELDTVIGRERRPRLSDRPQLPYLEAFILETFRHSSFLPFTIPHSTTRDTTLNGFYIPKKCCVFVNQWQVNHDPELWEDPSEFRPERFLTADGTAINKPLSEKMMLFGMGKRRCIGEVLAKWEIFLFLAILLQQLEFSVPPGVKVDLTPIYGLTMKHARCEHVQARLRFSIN
Description: as §1, §2, §3

[7] = biological target: T1, CRTH2; assay: CRTH2 inhibitory activity in CRTH2-expressing cells (PGD2-induced intracellular calcium increase, K562); format: cell-based; conditions: 200 nM PGD2, read-out: IC50, inhibition of intracellular calcium concentration increase induced by PGD2
Procedure, shortened: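 CRTH2-expressing K562 cells (2×10^6 cells/ml, 10 mM HEPES pH 7.4, 0.1% BSA) were loaded with […] (4 μM) for 30 min at room temperature, preincubated with compound for 2 min, then stimulated with 200 nM PGD2. Calcium rise was read by FDSS3000; IC50 from inhibition curves.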

[8] = IC50 of PGD2 (60 nM)-induced cAMP increase, human DP1 receptor expressing Jurkut cell
[9] = category of cAMP IC50, human DP1 receptor expressing Jurkut cell

Sequence of CYP3A4 (P08684 whole entry): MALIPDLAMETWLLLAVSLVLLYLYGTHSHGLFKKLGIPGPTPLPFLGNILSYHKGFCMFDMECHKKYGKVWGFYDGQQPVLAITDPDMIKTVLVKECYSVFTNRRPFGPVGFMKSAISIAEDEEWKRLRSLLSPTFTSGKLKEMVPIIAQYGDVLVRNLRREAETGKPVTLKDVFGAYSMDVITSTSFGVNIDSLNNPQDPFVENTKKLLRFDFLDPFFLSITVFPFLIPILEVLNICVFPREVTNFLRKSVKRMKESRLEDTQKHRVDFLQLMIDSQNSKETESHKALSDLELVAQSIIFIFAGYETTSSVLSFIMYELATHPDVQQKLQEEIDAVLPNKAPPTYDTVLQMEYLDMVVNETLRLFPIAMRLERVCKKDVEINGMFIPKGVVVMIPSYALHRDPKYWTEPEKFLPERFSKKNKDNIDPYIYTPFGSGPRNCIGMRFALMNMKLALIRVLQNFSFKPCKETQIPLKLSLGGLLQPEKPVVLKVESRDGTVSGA

SMILES	IC50 [1] [nM]	IC50 [2] [nM]	IC50 [3] [nM]	IC50 [4] [nM]	IC50 [5, 8] [nM]	IC50 [5, 9] [nM]	IC50 [6] [nM]	IC50 [7] [nM]
CC(C)Oc1ccc(S(=O)(=O)N2C[C@H](n3nc(CC(=O)O)c4ccc(F)cc43)C[C@H]2C#N)cc1 [Compound I-7]	> 20000	26	34	> 20000	23	< 100	> 20000	33
CC(C)Oc1ccc(S(=O)(=O)N2C[C@@H](C)[C@@H](n3nc(CC(=O)O)c4ccc(F)cc43)C2)cc1 [Compound I-37]	> 20000	71	15	> 20000	10	< 100	> 20000	50
CC(C)Oc1ccc(S(=O)(=O)N2C[C@@H](C)[C@@H](n3nc(CC(=O)O)c4ccc(F)cc43)C2)cn1 [Compound I-57]	> 20000	–	–	> 20000	–	< 100	> 20000	210
CC(C)Oc1ccc(S(=O)(=O)N2C[C@@H](C)[C@@H](n3nc(CC(=O)O)c4ccc(F)cc43)C2)c(F)c1 [Compound I-52]	> 20000	–	–	> 20000	–	< 100	> 20000	140
CCOc1ccc(S(=O)(=O)N2C[C@@H](C)[C@@H](n3nc(CC(=O)O)c4ccccc43)C2)cn1 [Compound I-96]	> 20000	68	270	> 20000	40	< 100	> 20000	230
